The Ki is a dissociation constant, usually derived from enzyme kinetics or from competition with a known ligand.

In data set [1] the test system is SH-SY5Y cells. The experiment in a line: MTS assay 72 h, neurotoxic effect. It counts as cell-based, human. Conditions: 10 and 50 μM. As for the experimental part: SHSY5Y cells were grown in DMEM supplemented by 10% FBS, L-glutamine (2 mM), and penicillin (100u/mL)/streptomycin (100 μg/mL). The cell line was tested for mycoplasma using DAPI staining and the LookOut Mycoplasma PCR Detection Kit (MP0035, Merck). The cell line was authenticated after thawing by a morphology check, cell proliferation rate evaluation, and species verification by PCR. Bacteria contamination was excluded. […] Subsequently, cells were subjected to a CellTiter 96 AQueous One Solution Cell Proliferation Assay (Promega), according to the manufacturer’s protocol. The absorbance at 490 nm was evaluated to estimate the cell number.

The subject of data set [2] is SH-SY5Y cells. Description: ROS assay (2',7'DCFH2-DA), rotenone-induced neurotoxicity. It counts as cell-based, human. As for the experimental part:
The ROS measurement was assayed by 2′,7′-dichlorofluorescin diacetate (2′, 7′DCFH2-DA, Sigma, no. D6883). The protocol was previously described in detail.[10] […] The following day, all treatments were carried out with warmed HBSS containing 25 mM HEPES (hereafter referred to as HBSS), and during the operational steps, the cells were kept at 37 °C to minimize temperature stress.

Data set [3] concerns SH-SY5Y cells. The experiment in a line: qRT-PCR of neurodegeneration-associated genes. The format is cell-based, human. Conditions: 10 and 50 μM, 24 h. Background: Real-time PCR tracks product formation cycle by cycle.
Another data set relates to HT-22 cell line. The experiment in a line: protection against Aβ1–42, ROS (CellROX). The format is cell-based, mouse. To be noted: 10 μM pretreatment 1 h, Aβ1–42 35 μM 16 h.
The test system of data set [4] is rats. Description: NORT after 21 day administration, discrimination index. The format is in vivo, rat. Conditions: 21 days; for reversal of (+)MK-801-induced memory disturbances (DI): (+)MK-801 0.1 mg/kg. As for the experimental part:
Standard laboratory food (LSM-B) and filtered water as well as environment enrichment were freely available. Animals were randomly divided into treatment groups using a computer-based random order generator. All of the experiments were performed by two observers unaware of the treatment applied between 9:00 and 14:00 on separate groups of animals.
In the NOR test (NORT), rats were randomly divided into experimental groups (n = 8/group). […] All compounds were prepared immediately before administration and were injected intraperitoneally (i.p.) in a constant volume of 2 mL/kg. […] The control group received 1% Tween 80 on the same schedule.
The test was carried out according to the method described by Ennaceur.[46] NORT was conducted in two black-painted wood boxes (60 cm × 60 cm × 60 cm). A video camera mounted above the boxes recorded all experiments. Two days before the test, the rats were placed in the empty experimental boxes for 5 min as a habituation to the test area. On the third day, the test was performed in 2 trials lasting for 3 min at one-hour intervals. First session, familiarization (T1) with two identical objects (A1 and A2) located in the opposite corners of the boxes, approximately 10 cm from the walls, and second trial, recognition (T2) with one familiar (A) and one novel object (B). Metal cans and glass jars with sand were used as the objects. The boxes were cleaned and dried after each measurement. The exploration time (E) of the objects (such as looking, licking, sniffing, or touching while sniffing) during T2 was measured, and the discrimination index (DI) was calculated according to the following formula: DI = (EB – EA)/(EA + EB).
The normality of data distribution and the homogeneity of variance were checked using the Shapiro–Wilk’s test and Levene’s test, respectively. All behavioral results are shown as the means ± SEM.

On the set-up of data set [5]: method as in PMID 38190615, PMID 35228010. To be noted: cited from earlier work.
Another data set has as its system HepG2. On the set-up: method as in PMID 38190615, PMID 35228010. Conditions: tested at 0.1–100 μM; cited from earlier work.
On the set-up of data set [6]: method as in PMID 38190615, PMID 35228010. To be noted: AMES test; cited from earlier work.
In the next data set the test system is ABCB1. On the set-up: method as in PMID 35228010. To be noted: previous evidence; cited from earlier work.
The target of the next data set is 5-HT1AR. Conditions: read-out: radioligand binding assay Ki; cloned receptors; cited from earlier work.
Another data set deals with 5-HT2AR. To be noted: read-out: radioligand binding assay Ki; cloned receptors; cited from earlier work.
A further data set addresses 5-HT7R. To be noted: read-out: radioligand binding assay Ki; cloned receptors; cited from earlier work.
Data set [7] deals with rats. Conditions: acute administration, male Wistar rats, (+)MK-801; cited from earlier work.

Procedure for HT-22 cell line: Cells were cultured in Dulbecco’s modified Eagle’s Medium-high glucose (DMEM, GlutaMAX ThermoFisher) supplemented with 10% inactivated fetal bovine serum heat (Thermo Fisher), 100 IU/mL penicillin (Merck), and 100 μg/mL streptomycin (Merck). Cells were cultured in flasks (area 175 cm^2, Nunc) and incubated at 37 °C, 5% CO2. To measure the neuroprotective effect against Aβ1–42, cells were placed in a 96-well culture plate (5 × 10^3 cells per well, Falcon).
Stock solutions were prepared at a concentration of 10 mM for the tested compounds. A minimum of 1 mg of each tested compound was weighed and dissolved in an appropriate volume of dimethyl sulfoxide (DMSO). Serial dilutions were prepared in DMSO, and then, the diluted compounds were transferred to phosphate-buffered saline (PBS), mixed, and put into a medium with adherent cells. Before the assays, eventual precipitation or opalescence was checked.
Aβ1–42 (Merck) was initially dissolved in 1,1,1,3,3,3- hexafluor-2-propanol (Merck). […] After this time, the Aβ1–42 solution was evaporated by using nitrogen gas. Next, DMSO was added to obtain a 2 mM stock solution of β-amyloid. […]
After the end of incubation with the tested compounds, the supernatant was removed, and cells were incubated with CellROX (5 μM) in DMEM FluoroBrite (ThermoFisher) for 1 h at 37 °C. The results are expressed as a percentage of control (Aβ1–42).

On to `CN1CCN(c2nc(N)nc(C(C)(C)Sc3ccc4ccccc4c3)n2)CC1` [WA-22, 4-(4-methylpiperazin-1-yl)-6-(2-(naphthalen-2-ylthio)propan-2-yl)-1,3,5-triazin-2-amine], for which the “neurotoxic effect (MTS)” value in the data set with SH-SY5Y cells [1] is “no significant differences”. In the data set on SH-SY5Y cells [2] (compound 10 μM pretreatment 1 h, then ROT 32.5 μM 3 h), the “ROS level (Ctr set as 100%)” value was found to be 128%. Moreover, the “effect on ROS of compound alone” value in the data set on SH-SY5Y cells [2] (without ROT) is on record as “did not exert any effect”. Further, the NRF2 transcription entry with SH-SY5Y cells [3] was “neither WA-22 nor PPK-32 were able to stimulate its transcription”. In the data set with SH-SY5Y cells [3], the “expression of NQO1, SOD1, and HO1” value is “induces the expression of the same genes, although with a lower significance and increase”. In addition, the “expression of pro-inflammatory gene NFkB” value in the data set with SH-SY5Y cells [3] was “neither WA-22 nor PPK-32 were able to downregulate”. Also, the “decrease of ROS induced by Aβ” value in the data set on HT-22 cell line is “only PPK-32 displayed the ability to decrease ROS”. In addition, the “influence on memory compared to vehicle-treated rats (DI)” value in the data set on rats [4] (1 mg/kg/day i.p., without (+)MK-801) is reported as “No memory changing”. The “reversal of (+)MK-801-induced memory disturbances (DI)” value with rats [4] (1 mg/kg/day i.p.) is recorded as “significantly reversed”; in the data set with rats [4] (3 mg/kg/day i.p.) it was “also observed for a dose of 3 mg/kg, but memory restoration was not at the same level as that of control rats”. For the same compound, in data set [5], the “permeability PAMPA Pe” value is 13.8 × 10^–6 cm/s. Moreover, the “hepatotoxic (statistically significant HepG2 viability decrease)” value in the data set with HepG2 was more than 25 µM. The mutagenic entry in [6] was “no”. Further, the ABCB1 inhibition result with ABCB1 is on record as “potent inhibitor of ABCB1”. In addition, the Ki at 5-HT1AR is 2290 nM; on 5-HT2AR it was 39 nM; on 5-HT7R it was 607 nM. Further, the “memory-protective action at doses as low as” value in the data set with rats [7] is reported as 0.3 mg/kg.
